For 19 compounds, IC50 results are on record in patent US20240293386A1, “NOVEL COMPOUND AS PROTEIN KINASE INHIBITOR” (LG CHEM, LTD., priority 2021, published 2024).

Test [1] deals with RON (Homo sapiens, UniProt Q04912). Put plainly: Evaluation of inhibitory activity against RON (TR-FRET). The test is classed as biochemical. Particulars: TR-FRET enzyme assay, RON protein, ULight-labeled Poly GT substrate, ATP. The procedure:
In order to measure the inhibitory activity of each of the compounds of Examples against RON, the IC50 of each of the compounds was measured using Time-resolved fluorescence energy transfer (TR-FRET).
Specifically, the compound was prepared to a concentration of 1 mM in 100% DMSO and was diluted 10 times in a stepwise manner through 3-fold dilution. The compound (2 μL) diluted in a stepwise manner was added to a 96-well-plate containing 48 μL of a 1× kinase reaction buffer (50 mM HEPES (pH 7.4), 0.01% Tween-20, 5 mM DTT, 0.5 mM Na3VO4, 2 mM EGTA, 10 mM MgCl2).
The RON protein was diluted to a concentration of 49.3 nM in a RON storage buffer (50 mM Tris-HCl (pH 7.5), 150 mM NaCl, 0.5 mM EDTA, 0.02% Triton X-100), and then diluted again to a concentration of 0.4 nM in a 1× kinase reaction buffer. As a substrate cocktail, a RON-specific substrate mixed solution (40 uM ULight-labeled Poly GT, 100 nM ATP) was prepared at a concentration 2 times the final reaction concentration.
(§1) Thereafter, a 384-well-plate was prepared, and 2.5 μL of each of the diluted compounds of Examples was added to a corresponding well of experimental group wells, and 2.5 μL of a 4% DMSO solution was dispensed into high control wells and low control wells.
(§2) Thereafter, 2.5 μL of 0.4 nM RON was dispensed into each of the high control wells and the experimental group wells, and 2.5 μL of the 1× kinase reaction buffer was added to the low control wells, and all the wells were centrifuged at room temperature for 40 seconds at 1,000 RPM, and then incubated at room temperature for 20-30 minutes. Then, 5 μL of the substrate cocktail (2×) was dispensed into each well, and all the wells were centrifuged at room temperature for 40 seconds at 1,000 RPM, and then incubated at room temperature for 60 minutes. Thereafter, 5 μL of 30 mM EDTA was added to each well to terminate the reaction, and all the wells were then incubated again at room temperature for 5 minutes. Thereafter, 5 μL of a 4× phosphotyrosine antibody (Perkin Elmer) containing europium was added to each well, and all the wells were then incubated at room temperature for 60 minutes. After the incubation, the 384-well-plate was read with the Vison plate reader. In this case, the excitation wavelength was 340 nm, and the emission wavelength was 620 nm and 665 nm. The IC50 value of each compound of Examples was derived using the GraphPd Prism7 program.
(In TR-FRET formats the signal depends on donor and acceptor labels being close together.)

In test [2] the target is cMET (Homo sapiens, UniProt P08581). Put plainly: Evaluation of inhibitory activity against MET (TR-FRET). In kind it is biochemical. Particulars: TR-FRET enzyme assay, cMET protein, TK peptide substrate, ATP. The protocol: In addition, in order to measure the enzyme activity inhibition for cMET, the evaluation was performed in the same manner as the enzyme activity inhibition measurement experiment for RON.
Specifically, the compound was prepared to a concentration of 1 mM in 100% DMSO and was diluted 10 times in a stepwise manner through 3-fold dilution. The compound (2 μL) diluted in a stepwise manner was added to a 96-well-plate containing 48 μL of a 1× kinase reaction buffer (50 mM HEPES (pH 7.4), 0.05% BSA, 0.005% Tween-20, 1 mM DTT, 0.5 mM MnCl2, 20 mM MgCl2).
The cMET protein was diluted to a concentration of 263 nM in a cMET storage buffer (50 mM Tris-HCl (pH 7.5), 150 mM NaCl, 0.05% Brij35, 1 mM DTT, 10% Glycerol), and then diluted again to a concentration of 2 nM in a 1× kinase reaction buffer. As a substrate cocktail, a MET-specific substrate mixed solution (5 μM TK peptide, 10 mM ATP) was prepared at a concentration 2 times the final reaction concentration.
as §1
as §2, with “of 2” for “of 0.4”, “nM cMET” for “nM RON”, “of 90” for “of 30”

cMET, sequence (P08581 25-1390): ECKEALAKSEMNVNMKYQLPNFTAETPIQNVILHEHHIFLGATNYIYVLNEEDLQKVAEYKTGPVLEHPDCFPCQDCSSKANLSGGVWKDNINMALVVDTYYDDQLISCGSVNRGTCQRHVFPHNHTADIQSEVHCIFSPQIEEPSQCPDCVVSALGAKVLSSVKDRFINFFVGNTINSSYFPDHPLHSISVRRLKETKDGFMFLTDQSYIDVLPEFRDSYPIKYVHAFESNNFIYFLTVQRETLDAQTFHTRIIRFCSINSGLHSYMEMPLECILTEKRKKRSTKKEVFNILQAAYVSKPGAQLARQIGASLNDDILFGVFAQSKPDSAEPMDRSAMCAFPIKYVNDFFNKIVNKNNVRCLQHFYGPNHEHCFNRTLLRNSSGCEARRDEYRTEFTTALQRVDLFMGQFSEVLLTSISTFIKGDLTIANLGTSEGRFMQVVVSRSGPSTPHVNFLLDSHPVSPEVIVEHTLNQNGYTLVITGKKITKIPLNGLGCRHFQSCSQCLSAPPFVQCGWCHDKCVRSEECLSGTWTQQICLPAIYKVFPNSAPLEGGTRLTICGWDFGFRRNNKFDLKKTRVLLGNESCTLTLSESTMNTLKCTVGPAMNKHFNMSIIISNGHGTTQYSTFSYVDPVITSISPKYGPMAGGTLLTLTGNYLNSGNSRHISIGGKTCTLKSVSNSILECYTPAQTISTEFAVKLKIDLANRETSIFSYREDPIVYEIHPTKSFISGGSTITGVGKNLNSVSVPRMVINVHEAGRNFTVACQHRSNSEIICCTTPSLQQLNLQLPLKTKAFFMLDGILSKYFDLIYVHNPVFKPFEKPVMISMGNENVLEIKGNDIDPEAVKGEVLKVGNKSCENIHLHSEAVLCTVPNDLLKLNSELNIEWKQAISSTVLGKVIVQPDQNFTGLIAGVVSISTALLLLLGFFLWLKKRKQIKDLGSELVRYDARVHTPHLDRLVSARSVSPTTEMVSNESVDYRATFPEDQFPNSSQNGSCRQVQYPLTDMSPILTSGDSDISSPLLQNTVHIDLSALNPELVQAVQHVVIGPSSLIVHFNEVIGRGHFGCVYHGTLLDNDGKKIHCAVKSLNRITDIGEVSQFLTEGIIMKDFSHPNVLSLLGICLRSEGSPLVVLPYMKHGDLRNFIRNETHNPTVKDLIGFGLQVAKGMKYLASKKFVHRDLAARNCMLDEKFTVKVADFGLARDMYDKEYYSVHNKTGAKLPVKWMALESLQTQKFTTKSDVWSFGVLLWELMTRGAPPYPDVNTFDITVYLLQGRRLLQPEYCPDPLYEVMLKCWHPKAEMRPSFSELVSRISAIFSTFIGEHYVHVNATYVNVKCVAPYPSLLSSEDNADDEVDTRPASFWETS
RON, sequence (Q04912 25-1400, species assumed): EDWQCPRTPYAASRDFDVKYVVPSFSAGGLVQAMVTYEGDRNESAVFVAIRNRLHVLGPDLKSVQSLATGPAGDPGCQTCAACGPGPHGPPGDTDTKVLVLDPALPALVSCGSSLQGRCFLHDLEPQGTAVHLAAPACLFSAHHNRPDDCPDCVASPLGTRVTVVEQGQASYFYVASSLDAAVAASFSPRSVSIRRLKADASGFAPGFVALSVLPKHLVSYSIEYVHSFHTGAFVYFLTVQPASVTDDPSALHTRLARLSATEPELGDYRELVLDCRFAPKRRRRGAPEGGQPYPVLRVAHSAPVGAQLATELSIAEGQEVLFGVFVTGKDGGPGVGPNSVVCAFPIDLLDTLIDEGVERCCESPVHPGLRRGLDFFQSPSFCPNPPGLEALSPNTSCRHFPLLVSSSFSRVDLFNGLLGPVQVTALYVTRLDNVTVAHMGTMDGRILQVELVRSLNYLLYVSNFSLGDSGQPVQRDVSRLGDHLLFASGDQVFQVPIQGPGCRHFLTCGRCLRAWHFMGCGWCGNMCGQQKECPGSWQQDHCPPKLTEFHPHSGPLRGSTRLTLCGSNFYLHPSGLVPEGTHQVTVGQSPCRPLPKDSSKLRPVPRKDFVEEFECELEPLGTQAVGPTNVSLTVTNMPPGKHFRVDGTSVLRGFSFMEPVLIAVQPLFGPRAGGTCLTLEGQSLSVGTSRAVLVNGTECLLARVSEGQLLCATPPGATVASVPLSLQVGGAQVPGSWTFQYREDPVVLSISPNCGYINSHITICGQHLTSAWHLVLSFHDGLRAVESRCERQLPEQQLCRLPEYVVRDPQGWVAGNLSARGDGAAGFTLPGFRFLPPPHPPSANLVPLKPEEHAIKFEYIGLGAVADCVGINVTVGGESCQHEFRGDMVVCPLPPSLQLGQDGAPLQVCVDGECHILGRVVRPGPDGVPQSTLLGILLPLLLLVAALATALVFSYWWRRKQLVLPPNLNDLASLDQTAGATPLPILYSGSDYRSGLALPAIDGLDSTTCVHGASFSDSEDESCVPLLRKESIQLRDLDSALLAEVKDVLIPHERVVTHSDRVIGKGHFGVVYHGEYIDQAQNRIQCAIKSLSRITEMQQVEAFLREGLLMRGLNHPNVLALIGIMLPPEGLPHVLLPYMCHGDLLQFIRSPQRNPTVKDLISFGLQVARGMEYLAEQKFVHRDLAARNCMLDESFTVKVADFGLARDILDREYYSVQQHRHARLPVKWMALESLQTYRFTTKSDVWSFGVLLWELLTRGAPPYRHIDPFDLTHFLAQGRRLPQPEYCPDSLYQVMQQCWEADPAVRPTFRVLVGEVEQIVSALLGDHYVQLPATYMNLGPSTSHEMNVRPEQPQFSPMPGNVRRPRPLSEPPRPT

As usually defined, the IC50 is the concentration needed to halve the response being measured. The low end stands for greater potency, the high end for weaker potency. Turning to `CCOc1ccn(-c2ccc(F)cc2)c(=O)c1C(=O)Nc1ccc(-c2ccc3nc(N)sc3n2)c(C)c1` [Example 1, N-(4-(2-aminothiazolo[5,4-b]pyridin-5-yl)-3-methylphenyl)-4-ethoxy-1-(4-fluorophenyl)-2-oxo-1,2-dihydropyridine-3-carboxamide], the half-inhibitory concentration (IC50) in test [1] came out at 5.12 µM; in test [2] it was 5.23 µM.
In test [2], `CCOc1ccn(-c2ccc(F)cc2)c(=O)c1C(=O)Nc1ccc(Nc2ccc3nc(N)sc3n2)c(F)c1` [Example 3, N-(4-((2-aminothiazolo[5,4-b]pyridin-5-yl)amino)-3-fluorophenyl)-4-ethoxy-1-(4-fluorophenyl)-2-oxo-1,2-dihydropyridine-3-carboxamide] gave an IC50 of 6.72 µM.
Same read-out and setting: then `Cc1ccc(C(=O)Nc2ccc(Oc3cc(Cl)nn4ccnc34)c(F)c2)c(=O)n1-c1ccc(F)cc1` [Example 6, N-(4-((6-chloroimidazo[1,2-b]pyridazin-8-yl)oxy)-3-fluorophenyl)-1-(4-fluorophenyl)-6-methyl-2-oxo-1,2-dihydropyridine-3-carboxamide], with 8.27 µM; and `COc1ccn(-c2ccc(F)cc2)c(=O)c1C(=O)Nc1ccc(-c2ccnc(-c3ccnc(N)n3)c2)c(F)c1` [Example 15, N-(4-(2-(2-aminopyrimidin-4-yl)pyridin-4-yl)-3-fluorophenyl)-1-(4-fluorophenyl)-4-methoxy-2-oxo-1,2-dihydropyridine-3-carboxamide], with 4.86 µM; and `Cc1ccc(C(=O)Nc2ccc(-c3ccnc(-c4ccnc(N)n4)c3)c(F)c2)c(=O)n1-c1ccc(F)cc1` [Example 16, N-(4-(2-(2-aminopyrimidin-4-yl)pyridin-4-yl)-3-fluorophenyl)-1-(4-fluorophenyl)-6-methyl-2-oxo-1,2-dihydropyridine-3-carboxamide], with 1.49 µM.
As for `CCOc1ccn(-c2ccc(F)cc2)c(=O)c1C(=O)Nc1ccc(-c2ccc3c(N)n[nH]c3c2)c(F)c1` [Example 18, N-(4-(3-amino-1H-indazol-6-yl)-3-fluorophenyl)-4-ethoxy-1-(4-fluorophenyl)-2-oxo-1,2-dihydropyridine-3-carboxamide], the half-inhibitory concentration (IC50) was 0.467 µM in test [1] and 0.496 µM in test [2].
Regarding `CCOc1ccn(-c2ccc(F)cc2)c(=O)c1C(=O)Nc1ccc(-c2ccc3[nH]ncc3c2)c(F)c1` [Example 19], inhibition in test [2] was half-maximal at 6.54 µM (IC50).
Same read-out and setting: the same measure for `CCOc1ccn(-c2ccc(F)cc2)c(=O)c1C(=O)Nc1ccc(-c2ccc3snc(N)c3c2)c(F)c1` [Example 21, N-(4-(3-aminobenzo[d]isothiazol-5-yl)-3-fluorophenyl)-4-ethoxy-1-(4-fluorophenyl)-2-oxo-1,2-dihydropyridine-3-carboxamide]: 6.03 µM.
As to `Cc1c(C(=O)Nc2ccc(Oc3ccnc(N)c3Cl)c(F)c2)c(=O)n(-c2ccccc2)n1C` [Example 24, N-(4-((2-amino-3-chloropyridin-4-yl)oxy)-3-fluorophenyl)-1,5-dimethyl-3-oxo-2-phenyl-2,3-dihydro-1H-pyrazole-4-carboxamide], the IC50 in test [1] worked out at 0.044 µM; in test [2] it was 0.011 µM.
The like results for `Cc1ccc(C(=O)Nc2ccc(Oc3ccnc(N)c3Cl)c(F)c2)c(=O)n1-c1ccc(F)cc1` [Example 25, N-(4-((2-amino-3-chloropyridin-4-yl)oxy)-3-fluorophenyl)-1-(4-fluorophenyl)-6-methyl-2-oxo-1,2-dihydropyridine-3-carboxamide] were, in that order, 0.001 µM and 0.002 µM.
The like results for `Nc1nccc(Oc2ccc(NC(=O)c3ccc(CO)n(-c4ccc(F)cc4)c3=O)cc2F)c1Cl` [Example 26, N-(4-((2-amino-3-chloropyridin-4-yl)oxy)-3-fluorophenyl)-1-(4-fluorophenyl)-6-(hydroxymethyl)-2-oxo-1,2-dihydropyridine-3-carboxamide] were, in that order, 0.003 µM and 0.003 µM.
On the same counts, the results for `Nc1nccc(Oc2ccc(NC(=O)c3cc(C4CC4)cn(-c4ccc(F)cc4)c3=O)cc2F)c1Cl` [Example 27, N-(4-((2-amino-3-chloropyridin-4-yl)oxy)-3-fluorophenyl)-5-cyclopropyl-1-(4-fluorophenyl)-2-oxo-1,2-dihydropyridine-3-carboxamide] are 0.002 µM and 0.006 µM.
Turning to `Nc1nccc(Oc2ccc(NC(=O)c3ccc(C(F)(F)F)n(-c4ccc(F)cc4)c3=O)cc2F)c1Cl` [Example 28, N-(4-((2-amino-3-chloropyridin-4-yl)oxy)-3-fluorophenyl)-1-(4-fluorophenyl)-2-oxo-6-(trifluoromethyl)-1,2-dihydropyridine-3-carboxamide], the results for the concentration for half-maximal inhibition (IC50) in test [1] and in test [2] were 0.008 µM and 0.018 µM, respectively.
Consider `Cc1c(C(=O)Nc2ccc(Oc3ccnc(N)c3Cl)c(F)c2)c(=O)n(-c2ccccc2)n1CC(C)(C)O` [Example 29, N-(4-((2-amino-3-chloropyridin-4-yl)oxy)-3-fluorophenyl)-1-(2-hydroxy-2-methylpropyl)-5-methyl-3-oxo-2-phenyl-2,3-dihydro-1H-pyrazole-4-carboxamide], for which the IC50 in test [1] stood at 0.082 µM; in test [2], 0.054 µM.
As to `Cc1ccc(C(=O)Nc2ccc(Oc3ccnc(NC(=O)C4CC4)c3Cl)c(F)c2)c(=O)n1-c1ccc(F)cc1` [Example 30, N-(4-((3-chloro-2-(cyclopropanecarboxamido)pyridin-4-yl)oxy)-3-fluorophenyl)-1-(4-fluorophenyl)-6-methyl-2-oxo-1,2-dihydropyridine-3-carboxamide], the IC50 in test [1] is 0.025 µM; in test [2], 0.012 µM.
`Cc1ccc(C(=O)Nc2ccc(Oc3ccnc(N(C(=O)C4CC4)C(=O)C4CC4)c3Cl)c(F)c2)c(=O)n1-c1ccc(F)cc1` [Example 31, N-(4-((3-chloro-2-(N-(cyclopropanecarbonyl)cyclopropanecarboxamido)pyridin-4-yl)oxy)-3-fluorophenyl)-1-(4-fluorophenyl)-6-methyl-2-oxo-1,2-dihydropyridine-3-carboxamide] had a half-inhibitory concentration (IC50) in test [2] of 3.55 µM.
Still for that read-out and setting: the same measure for `Cc1ccc(C(=O)Nc2ccc(NC(=O)c3cc(Br)cnc3N)c(F)c2)c(=O)n1-c1ccc(F)cc1` [Example 32, 2-amino-5-bromo-N-(2-fluoro-4-(1-(4-fluorophenyl)-6-methyl-2-oxo-1,2-dihydropyridine-3-carboxamido)phenyl)nicotinamide]: 1.69 µM.
In the case of `Cc1ccc(C(=O)Nc2ccc(NC(=O)c3cc(-c4cnn(C)c4)cnc3N)c(F)c2)c(=O)n1-c1ccc(F)cc1` [Example 34, 2-amino-N-(2-fluoro-4-(1-(4-fluorophenyl)-6-methyl-2-oxo-1,2-dihydropyridin-3-carboxamido)phenyl)-5-(1-methyl-1H-pyrazol-4-yl)nicotinamide], the IC50 in test [1] was 7.88 µM; in test [2] it was 1.56 µM.
The like results for `Cc1ccc(C(=O)Nc2ccc(Oc3ncnc(N)c3Cl)c(F)c2)c(=O)n1-c1ccc(F)cc1` [Example 36, N-(4-((6-amino-5-chloropyrimidin-4-yl)oxy)-3-fluorophenyl)-1-(4-fluorophenyl)-6-methyl-2-oxo-1,2-dihydropyridine-3-carboxamide] were, in that order, 0.007 µM and 0.014 µM.
